These results are taken from patent US20260327211A1, “MODULATORS OF A POTASSIUM CHANNEL AND OF TRPV1 CHANNEL AND USES THEREOF” (Bsense Bio Therapeutics Ltd., priority 2023, published 2026).

Data set [1] in a line: Human liver microsome metabolic stability. It is filed as in vitro ADME. The conditions noted are these: for half-life at 1 µM: human, liver microsomes, read-out: HLM T1/2; for microsomal CLint at 1 µM: read-out: HLM Clint. A digest of the protocol:
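Compound at 1 μM was incubated at 37 °C with pooled liver microsomes at 0.5 mg/mL and an NADPH regenerating system (about 1.0 mM). Samples were taken from 0 to 60 min, quenched in cold acetonitrile and quantified by LC-MS/MS against an internal standard. CLint was scaled with species liver weights (rat 40 g/kg, human 20 g/kg).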

A further data set has as its target T1, hKv7.2/3 (Homo sapiens, UniProt O43525+O43526).
T1 construct: host or cells: CHO
The experiment in a line: Kv7.2/7.3 HCS, FLIPR potassium (thallium) assay, CHO/hKv7.2/3. Format: cell-based. The gist of the method: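 CHO cells stably expressing human Kv7.2/3, loaded with Tl+ indicator dye 1.5 h at room temperature in HBSS/HEPES with compound (0.2% DMSO). Channels activated by injection of 1 mM Tl2SO4 plus 5 mM K2SO4; fluorescence increase reflects Tl+ influx. EC50 from sigmoidal fit constrained to minimum 1, maximum ~3.6.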

The next data set concerns rat DRG neurons. The experiment in a line: Rat DRG neurons, capsaicin-evoked action potential firing. The conditions noted are these: for IC50: capsaicin 1 μM, read-out: Rat DRGs, CAP IC50. It is filed as cell-based. The source says:
rDRGs isolation and primary cell culture: Briefly, rat DRGs from all spinal levels were carefully removed and collected in HBSS on ices, connective tissue of the epineurium surrounding the ganglion was removed and cells were dissociated using Collagenase-II and trypsin dissociation solutions. DRGs were dissociated further, passed through glass Pasteur pipettes to obtain single cells. Then dissociation solution was changed to 5% FBS containing DRG neuronal culture medium and plated onto ECL coated 12 mm cover glass.
Additional rDRGs experiments were performed using Lonza primary neonatal rat (Sprague Dawley neonatal; P2,3) DRG neurons (R-DRG-505, Lonza) plated and cultured according to the manufacturer.
Electrophysiology: Cells were used for electrophysiological recording at least 48 hours following rDRG isolation or at least 5 days following cryopreserved rDRG thawing. Round small neurons (20-40 μm in diameter) were selected for electrophysiology recordings, to select for small nociceptive neurons that propagate pain sensation in vivo and that are expressing both Kv7.2/3 and TRPV1 targets. Membrane excitability was monitored using current clamp configuration of the whole-cell patch-clamp technique. Positive current steps of different amplitude were injected (400 ms) to induce spikes trains before and following compound application.
To assess the potency of compounds using DRG neurons, the inhibitory potency for CAP-evoked action potential (AP) trains was measured. For this purpose, DRG membrane potential was continuously measured, and the following protocol was performed:
Cells were perfused with vehicle containing bath solution. After 30 seconds, CAP (1 μM) was applied for 6 seconds to activate TRPV1 and stimulate AP trains.
After 30 seconds of perfusion with bath solution containing only vehicle, perfusion was changed to a bath solution containing compound, and after 3 minutes of compound application, CAP (1 μM) was applied again for 6 seconds to activate TRPV1 and stimulate AP trains.
Cells perfusion was changed back to bath solution containing only vehicle and after 3 minutes of compound washout, CAP (1 μM) was applied again for 6 seconds to activate TRPV1 and stimulate AP trains.
To evaluate the drug/control response, the number of AP spikes induced by CAP following incubation with test compound was divided by the average number of control AP spikes induced without compound, before compound incubation, and following its washout.

Setting [2] is: Table 1, read-out: Kv7.2/7.3 IC50.

Where “and” joins values, the source holds several entries; their conditions need not be identical. Equal values may be shown once. Read-outs that look alike come from different tables or passages of the source.

T1 sequence (O43525 whole entry): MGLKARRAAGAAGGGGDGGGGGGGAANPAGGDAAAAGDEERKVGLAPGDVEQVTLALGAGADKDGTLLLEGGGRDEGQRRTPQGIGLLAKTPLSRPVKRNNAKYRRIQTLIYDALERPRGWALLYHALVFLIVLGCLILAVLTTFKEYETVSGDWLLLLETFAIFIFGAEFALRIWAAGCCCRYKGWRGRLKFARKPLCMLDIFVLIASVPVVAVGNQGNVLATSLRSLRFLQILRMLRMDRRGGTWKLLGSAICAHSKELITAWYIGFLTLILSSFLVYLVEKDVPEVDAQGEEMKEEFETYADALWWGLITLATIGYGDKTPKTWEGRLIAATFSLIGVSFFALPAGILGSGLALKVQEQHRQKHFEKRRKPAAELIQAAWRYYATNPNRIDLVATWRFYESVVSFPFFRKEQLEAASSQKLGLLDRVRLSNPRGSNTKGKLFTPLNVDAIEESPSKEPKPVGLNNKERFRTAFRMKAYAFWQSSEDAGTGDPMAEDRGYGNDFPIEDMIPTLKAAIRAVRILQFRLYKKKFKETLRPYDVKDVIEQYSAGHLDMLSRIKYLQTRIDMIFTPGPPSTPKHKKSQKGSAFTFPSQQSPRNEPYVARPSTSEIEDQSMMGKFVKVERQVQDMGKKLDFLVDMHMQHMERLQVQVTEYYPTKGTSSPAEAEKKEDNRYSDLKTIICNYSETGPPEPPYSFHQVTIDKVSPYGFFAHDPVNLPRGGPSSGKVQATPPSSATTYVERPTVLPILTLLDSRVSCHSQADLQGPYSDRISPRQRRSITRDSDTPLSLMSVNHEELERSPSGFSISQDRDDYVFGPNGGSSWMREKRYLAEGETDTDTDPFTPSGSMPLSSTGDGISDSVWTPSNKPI
T1 sequence (O43526 whole entry): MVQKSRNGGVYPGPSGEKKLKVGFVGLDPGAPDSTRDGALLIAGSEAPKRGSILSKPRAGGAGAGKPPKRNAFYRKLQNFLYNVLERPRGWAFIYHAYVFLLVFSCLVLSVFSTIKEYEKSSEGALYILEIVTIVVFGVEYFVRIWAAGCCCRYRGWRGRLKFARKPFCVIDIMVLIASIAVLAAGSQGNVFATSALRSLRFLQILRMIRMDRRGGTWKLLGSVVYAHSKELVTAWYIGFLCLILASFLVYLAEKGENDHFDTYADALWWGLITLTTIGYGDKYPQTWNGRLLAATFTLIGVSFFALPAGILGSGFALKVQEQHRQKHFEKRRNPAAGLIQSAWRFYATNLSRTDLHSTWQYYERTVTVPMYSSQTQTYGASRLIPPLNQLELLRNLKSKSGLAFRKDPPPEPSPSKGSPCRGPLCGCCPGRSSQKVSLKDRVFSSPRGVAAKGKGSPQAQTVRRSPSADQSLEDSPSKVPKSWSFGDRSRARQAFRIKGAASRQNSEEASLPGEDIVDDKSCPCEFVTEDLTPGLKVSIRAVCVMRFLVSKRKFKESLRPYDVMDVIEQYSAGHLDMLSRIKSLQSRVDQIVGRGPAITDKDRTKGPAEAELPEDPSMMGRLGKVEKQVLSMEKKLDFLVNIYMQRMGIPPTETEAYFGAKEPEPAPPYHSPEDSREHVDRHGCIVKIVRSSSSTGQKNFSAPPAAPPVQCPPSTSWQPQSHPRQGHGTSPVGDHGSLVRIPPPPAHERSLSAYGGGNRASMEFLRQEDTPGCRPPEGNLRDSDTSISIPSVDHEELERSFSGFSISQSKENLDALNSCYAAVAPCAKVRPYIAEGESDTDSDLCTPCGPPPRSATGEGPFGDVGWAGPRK

On to `O=C(Cc1ccnc(-n2cc(Cl)c3cc(Cl)cc(Cl)c32)n1)N[C@@H]1COC[C@H]1O` [Compound 820], for which the “HLM and/or Rat PK clearance rates compared to compound 661” value in data set [1] is on record as “improved HLM and/or Rat PK clearance rates compared to compound 661”. For the same compound, the half-life at 1 µM in data set [1] (human liver microsomes) was 33.8 min.
For `CC(C)c1cc(Cl)cc(Cl)c1C(=O)c1ccc(F)c(CC(=O)NCC(C)(C)O)c1` [Compound 417-4], the EC50 at hKv7.2/3 (setting [2]) is 13400 nM. Further, the microsomal CLint at 1 µM in data set [1] (human liver microsomes) was 91.8 µL/min/mg.
As a reminder, the IC50 is the concentration needed to halve the response being measured. One may read the CLint scaled as the rate of metabolic loss divided by the concentration. Higher therefore signals rapid turnover. `O=C(Cc1cncc(-n2cc(Cl)c3cc(Cl)cc(Cl)c32)c1)N[C@@H]1COC[C@H]1O` [Compound 661]: on hKv7.2/3, the “Kv7.2/3 activation (words)” value is given as “partial yet potent facilitation of Kv7.2/3 activity”. Also, the EC50 on hKv7.2/3 (setting [2]) worked out at 1100 nM. For the same compound, at hKv7.2/3 (read-out: Kv7.2/3 maximal opening vs. control), the Emax amounted to 21%. The EC50 at hKv7.2/3 (read-out: hKv7.2/3 EC50 HCS) stood at 0.001 nM. In addition, in the data set with rat DRG neurons (listed as BS661), the IC50 is 0.002 nM. In addition, the half-maximal inhibitory concentration (IC50) in the data set on rat DRG neurons is 0.003 nM and 0.002 nM and < 0.003 nM. Besides, in data set [1] (human liver microsomes), the intrinsic metabolic clearance (CLint scaled) at 1 µM is 64.8 mL/min/kg, the microsomal CLint at 1 µM stood at 72 µL/min/mg and the half-life at 1 µM turned out to be 19.2 min. The “HLM T1/2” value in data set [1] (human liver microsomes, 1 µM) amounted to 19.3 min.
For `COC[C@@H](CO)NC(=O)Cc1cc(Sc2c(Cl)cc(F)cc2C(C)C)ccc1F` [Compound 415], the EC50 on hKv7.2/3 (setting [2]) is 2200 nM. The microsomal CLint at 1 µM in data set [1] (human liver microsomes) stood at 839 µL/min/mg.
Regarding `O=C(Cc1cc(-n2cc(Cl)c3cc(Cl)cc(Cl)c32)ccc1F)NCCO` [Compound 627], the “Kv7.2/3 activation (words)” value at hKv7.2/3 is reported as “significant hKv7.2/3 activation even at picomolar concentrations”. This compound also gave an activation at 0.01 µM on hKv7.2/3 (10 nM range) of roughly 30%. Further, the EC50 stood at 540 nM on hKv7.2/3 (setting [2]) and 500 nM at hKv7.2/3 (read-out: Kv7.2/7.3 EC50). Moreover, the “Inhibition of capsaicin-evoked action potential firing” value in the data set with rat DRG neurons (0.1 nM) is “about 50%”; with rat DRG neurons (1 nM), “completely blocked”. Further, the IC50 in the data set with rat DRG neurons stood at 0.1 nM.
As to `Cc1cn(-c2ccc(F)c(CC(=O)NCC(C)(C)O)c2)c2c(Cl)cc(Cl)cc12` [Compound 421], on hKv7.2/3 (read-out: hKv7.2/3 EC50 HCS), the EC50 was 824 nM. Besides, in the data set on rat DRG neurons (listed as BS421), the IC50 came to 25 nM. In addition, in the data set with rat DRG neurons, the IC50 was determined as 25 nM. Besides, in data set [1] (human liver microsomes), the CLint scaled at 1 µM was 50 mL/min/kg and the half-life at 1 µM is 25 min.
In the case of `O=C(Cc1nccc(-n2cc(Cl)c3cc(Cl)cc(Cl)c32)n1)NC1COCC1O` (stereo not shown) [Compound 760], in the data set with rat DRG neurons (1 nM), the “Inhibition of capsaicin-evoked action potential firing” value is on record as “about 90%”. The IC50 with rat DRG neurons came out at 0.23 nM. In data set [1], the “HLM and/or Rat PK clearance rates compared to compound 661” value is “improved HLM and/or Rat PK clearance rates compared to compound 661”.
For `O=C(Cc1cc(-n2cc(C(F)(F)F)c3cc(Cl)cc(Cl)c32)ncn1)NCCO` [Compound 843], the “HLM and/or Rat PK clearance rates compared to compound 661” value in data set [1] is “improved HLM and/or Rat PK clearance rates compared to compound 661”. Further, the half-life at 1 µM in data set [1] (human liver microsomes) was greater than 145 min.
Take `CC(C)c1cc(Cl)cc(Cl)c1Nc1ccc(F)c(CC(=O)NCC(C)(C)O)c1` [NH91, reference compound]: the EC50 on hKv7.2/3 (read-out: Kv7.2/7.3 EC50) turned out to be 700 nM. Further, the IC50 with rat DRG neurons came to 500 nM. In addition, in data set [1] (human liver microsomes), the half-life at 1 µM is 7.4 min.
`Cc1cn(-c2ccc(F)c(CC(=O)NCC(C)(C)O)c2)c2c(Cl)cc(Cl)cc12` [Compound 421-6]: the EC50 on hKv7.2/3 (setting [2]) amounted to 1100 nM; on hKv7.2/3 (read-out: Kv7.2/7.3 EC50) it was 2100 nM. The “Inhibition of capsaicin induced AP response” value came out at 63.4±17.8% in the data set on rat DRG neurons (100 nM) and 86.5±8.4% with rat DRG neurons (500 nM). Further, the “Inhibition of AP response to capsaicin” value with rat DRG neurons (2 μM) was found to be 97.9±2.1%. Further, in the data set with rat DRG neurons, the IC50 was less than 100 nM. In data set [1] (human liver microsomes, 1 µM), the “HLM Clint” value turned out to be 55.5 µL/min/mg.
